# In ChEMBL document CHEMBL1152310, “A Dimeric sesquiterpenoid from a Malaysian Meiogyne as a new inhibitor of Bcl-xL/BakBH3 domain peptide interaction” (J Nat Prod, 2009):
# System: KB
# Assay: Cytotoxicity against human KB cells
# Format: functional, cell-based
smiles,measurement,value
CC(C)=CCC[C@@H](C)[C@H]1C=C[C@@]2(C(=O)O)[C@H](CC(C)=C[C@@H]2/C=C(\C)C2CCC(C(=O)O)CC2)C1 (stereo partly specified) [MEIOGYNIN A],IC50,4 µM
